The source of these data is article PMC12029982, “The Mechanism of a Novel Mitochondrial-Targeted Icaritin Derivative in Regulating Apoptosis of BEL-7402 Cells Based on the SIRT3 and CypD-Mediated ROS/p38 MAPK Signaling Pathway” (Molecules, 2025).

Holding throughout (assay type): cell-based, human
The test system of data set [1] is BEL-7402 cells. In words: DCFH-DA probe, intracellular ROS by flow cytometry. The conditions noted are these: 48-h treatment, dose-dependent. On the procedure:
Drug grouping and administration were performed as described in Section 2.6. After 48 h of incubation, 500 μL of DCFH-DA probe (Beyotime, Nanjing, China) was added to each well. The cells were stained for 30 min at 37 °C and protected from light. The dye was then discarded, and the cells were washed three times with a serum-free medium. Samples were analyzed using flow cytometry with an excitation wavelength of 480 nm and an emission wavelength of 525 nm.

In data set [2] the test system is BEL-7402 cells. As to the kind of experiment: Calcein AM/CoCl2 probe, MPTP opening. The note with it: increasing drug concentration, 24 h. On the procedure: Drug grouping and administration were performed as described in Section 2.5. After 24 h of incubation, 500 μL of staining solution (containing 2 μM Calcein AM and 5 mM CoCl2) (Aladdin, Shanghai, China) was added to each well. The cells were stained for 30 min at 37 °C and protected from light. After staining, the solution was discarded, and the cells were washed twice with PBS. The cells were then observed under an inverted fluorescence microscope.

The subject of data set [3] is CypD. As to the kind of experiment: Western blot. The note with it: 48 h. On the procedure: (§1) Drug grouping and administration were performed as described in Section 2.6. After 48 h of incubation, the supernatant was discarded, and the cells were washed twice with pre-cooled PBS. A volume of 150 µL of RIPA lysis buffer (Solarbio, Beijing, China) was added and incubated on ice. After sufficient lysis, the supernatant was centrifuged, and the protein concentration was determined using a BCA kit (Thermo, Waltham, MA, USA). The SDS-PAGE gel system was chosen based on the molecular weight of the target proteins to perform electrophoresis. After electrophoresis, the processed samples were transferred to a membrane and incubated at room temperature for 2 h to block non-specific binding. After membrane transfer, the membranes were incubated with primary antibodies against CypD (Proteintech Group, Wuhan, China), SIRT3 (Abcam, Cambridge, UK), P-MKK6 (Bioss, Beijing, China), P-P38 (Bioss, Beijing, China), DDIT3 (Bioss, Beijing, China), Cleaved-caspase-3 (Abcam, Cambridge, UK), and β-actin (ZSGB-BIO, Beijing, China) (1:1000) at 4 °C overnight. After primary antibody binding, the membranes were incubated with the corresponding secondary antibody (ZSGB-BIO, Beijing, China) (1:3000) at room temperature for 1 h. Immunoblot bands were detected using an enhanced chemiluminescence system (Analytik Jena AG, Jena, Germany). The bands were analyzed using ImageJ (v1.8.0) software.

The subject of data set [4] is Cl-caspase-3. As to the kind of experiment: Western blot. The note with it: 48 h. How it is done:
as §1
For orientation: A western blot detects proteins with antibodies after separation by electrophoresis.

Data set [5] relates to SIRT3. In words: Western blot. The conditions noted are these: 48 h. On the procedure: as §1
In data set [6] the test system is P-MKK6. In words: Western blot. The note with it: with increasing concentrations vs blank control, p < 0.001. On the procedure:
as §1

For data set [7], the system named is P-P38. In words: Western blot. The conditions noted are these: with increasing concentrations vs blank control, p < 0.001. How it is done: as §1
Data set [8] deals with DDIT3. In words: Western blot. The note with it: vs blank control, p < 0.001. How it is done:
as §1

Data set [9] concerns BEL-7402 cells. In words: Annexin V-FITC/PI flow cytometry apoptosis assay. How it is done:
BEL-7402 cells in the logarithmic growth phase were prepared into a cell suspension at a concentration of 2.5 × 10^5 cells/mL and seeded into 6-well culture plates with 2 mL per well. After overnight incubation, different concentrations of Mito-ICT-4 (0.625, 1.25, 2.5 μmol/L) were added to the cells, and a control group was included. After 48 h of culture, the supernatant was transferred to a centrifuge tube. The cells were then digested with pancreatin (without EDTA) (Beyotime, Nanjing, China) at room temperature and centrifuged at 4 °C for 5 min (10,000 rpm). The supernatant was discarded. Then, 300 μL of 1× buffer was added to each group, and the mixture was well mixed. The mixture was then incubated with 5 μL of Annexin V-FITC (Solarbio, Beijing, China) solution at room temperature for 5 min, protected from light, followed by the addition of 5 μL of PI solution. Apoptosis was detected using flow cytometry (BD Biosciences, Franklin Lakes, NJ, USA).

The subject of data set [10] is HEK293. As to the kind of experiment: MTT assay, cytotoxicity to normal cell line. How it is done:
Human cancer cell lines BEL-7402, A549, MCF-7, PC-3M, and normal renal cell line HEK293 were bought from the BeNa Culture Collection (Beijing, China). BEL7402, A549, and PC-3M were cultured in RPMI 1640 medium (Gibco, Carlsbad, CA, USA). MCF-7 and HEK293 were cultured in the DMEM medium (Gibco, CA, USA). The medium was supplemented with 10% fetal bovine serum (FBS) (CLARK, San Diego, CA, USA), 100 U/mL penicillin, and 0.1 mg/mL streptomycin (Beyotime, Nanjing, China). The cells were incubated in 5% CO2 at 37 °C.
The MTT assay was employed to assess the inhibitory effect of each compound on cell growth. A549, PC-3M, MCF-7, BEL-7402, and HEK293 cells in the logarithmic growth phase were seeded in 96-well culture plates at an inoculum density of 5 × 10^4 cells/mL. After overnight incubation at 37 °C in a 5% CO2 atmosphere, the cells fully adhered to the surface. Different concentrations of sample solutions (0, 3.125, 6.25, 12.5, 25, 50, 100 μmol/L) were added (100 μL) to treat the cells. After 48 h of drug treatment, 10 μL of a 5 mg/mL MTT solution was added to each well and incubated for 4 h at 37 °C. The supernatant was then discarded, and 150 μL of DMSO was added to dissolve the formazan. The mixture was shaken at room temperature for 15 min, and the absorbance (D) value was measured at 490 nm using a Microplate Reader (HBS-ScanY, Nanjing, China). The drug IC50 values were calculated using GraphPad Prism (v10.0). Each cell viability experiment was performed in triplicate.
(Formazan colour is commonly taken as a measure of viable cells.)

[11] abbreviates: low-concentration group vs control, p < 0.01.

By IC50 is commonly meant the concentration that gives 50% inhibition. Read a low IC50 as higher potency.

In the case of `COc1ccc(-c2oc3c(CC=C(C)C)c(OC(=O)CCCCCCCCCC[P+](c4ccccc4)(c4ccccc4)c4ccccc4)cc(O)c3c(=O)c2O)cc1` [Mito-ICT-4], the “intracellular ROS levels” value in [1] is reported as “significantly elevated”. Moreover, the “morphology with Calcein AM/CoCl2 (MPTP opening)” value in [2] is reported as “transitioned from oval to round and, ultimately, to an irregular shape”. Besides, the CypD protein expression result in data set [3] (setting [11]) was “elevated”; in [3] (medium and high-concentration groups vs control, p < 0.001), “significantly higher”. The “expression of Cl-caspase-3” value in data set [4] (high-concentration group vs control, p < 0.001) is on record as “significantly higher”; in data set [4] (setting [11]), “elevated”. The SIRT3 expression levels result in data set [5] (setting [11]) is “decreased”; in data set [5] (medium- and high-concentration groups vs control, p < 0.001), “significantly reduced”. The “expression level of P-MKK6” value in data set [6] is “decreased significantly”. Besides, in data set [7], the “expression level of P-P38” value is reported as “decreased significantly”. Besides, in data set [8], the “expression level of DDIT3” value is recorded as “increased significantly”. The “cells undergoing early apoptosis” value in [9] (BEL-7402 cells treated with Mito-ICT-4) is 27.39%. Moreover, the “apoptosis-inducing ability relative to ICT” value in [9] (BEL-7402 cells, sentence cites [24]) was “approximately 29.8 times”. In addition, the total apoptosis rate in data set [9] (high-dose group (2.5 μmol/L), 48 h) is on record as 27.39%. In data set [10] (Homo sapiens, HEK293, MTT, 48 h drug exposure, mean ± SD, normal cell line), this compound displayed an IC50 of 67.1 ± 2.09 µM. The “reduction compared to ICT (cytotoxicity in HEK293 cells)” value in [10] (from IC50 values in HEK293) stood at 55.4%.
